“Also recorded” adds a separate entry of the source.
Assays:
[1] = Stability test in S9 extract; type: in vitro ADME, mouse; settings: 2 μM, murine S9, Phase I NADPH cofactors, 0-240 minutes
Procedure: (§1) SA (2 μM) was incubated with murine S9 (Lot KWB) and Phase I NADPH Regenerating System cofactors for 0-240 minutes. SA was quantified using a Qtrap 3200 mass spectrometer. n=3. (FIG. 7B) SA is stable in mouse plasma. 1 μl SA 2 mM DMSO stock was incubated with 1 ml ACD mouse plasma or saline making 2 μM SW125991 working solution. Vortext well and incubate in 37° C. water bath. At time point 0, 10, 30, 60, 120, 240, 1440 min, SA was quantified using a Qtrap 3200 mass spectrometer. n=3.
SA (2 mM in H2O stock, final concentration in mixture is 2 μM) was incubated with Murine S9 (Lot KWB) fraction and Phase I (NADPH Regenerating System) cofactors for 0-240 minutes. Reactions were quenched with 1 mL (1:1) of methanol containing 0.2% formic acid, and 100 ng/ml IS (IS final conc.=10 ng/ml). Samples were vortexed for 15 seconds, incubated at RT for 10 minutes and spun for 5 minutes at 2400 rpm. Supernatant (1 mL) was then transferred to an eppendorf tube and spun in a table top, chilled centrifuge for 5 minutes at 13.2K rpm. Supernatant (800 μl) was transferred to an HPLC vial (w/out insert). Analyzed by Qtrap 3200 mass spectrometer.

[2] = system: human cord blood CD133+ cells; assay: Ex vivo expansion of human cord blood HSCs, repopulation in NSG mice; type: cell-based; settings: cord blood CD133+ cells cultured 11 days, 1 μM, 8 weeks post-transplantation
Procedure: (§2) Mouse BM Lin-Sca-1+Kit+CD34-Flk2-cells were cultured in serum-free Stemspan medium with 10 ng/ml SCF, 20 ng/ml TPO, and indicated concentrations of SA. Cell numbers were counted after 6 days. FIG. 2B The effects of SA on the ex vivo expansion of mouse CD45.1 Percent repopulation of C57BL/6 bone marrow HSCs at 0, 10 nM, 100 nM, and 1 μM for 8 days, measured at 3 weeks, 7 weeks, and 16 weeks post-transplantation. The repopulation of donor mouse CD45.1 HSCs was determined by transplantation into lethally irradiated (1000 rad) CD45.2 C57BL/6 mice. Ten thousand CD45.2 total bone marrow cells were co-transplanted as competitors. n=5. […] The repopulation of human hematopoietic stem cells was determined by transplantation into sublethally irradiated (250 rad) NOD/SCID IL2R gamma^−/− (NSG) mice. n=7.
Cryopreserved human cord blood CD133^+ cells were purchased from AllCells. All of cells were from pooled donors. Purities of CD133^+ cells as analyzed by flow cytometry were higher than 90%. After thawing, the cell viability tested by trypan blue exclusion was higher than 72%. […] Eight weeks after transplantation, bone marrow nucleated cells from transplanted animals were analyzed by flow cytometry for the presence of human cells. Total human hematopoietic cells were determined as CD45/71^+, and human myeloid cells as myeloid CD45/71^+CD15/66b^+.

[3] = system: Bone marrow CD45.1 Lin-Sca-1+Kit+Flk2-CD34- cells; assay: Ex vivo expansion of mouse bone marrow HSCs, repopulation after transplantation; type: cell-based; settings: cultured 8 days, determined by bone marrow transplantation
Procedure: as §2
Bone marrow CD45.1 Lin^−Sca-1^+Kit^+Flk2^−CD34^− cells were isolated from 8-12 week old CD45.1 C57BL/6 mice and were plated into wells of a U-bottom 96-well plate (3799; Corning). StemSpan serum-free medium (StemCell Technologies) supplemented with 10 μg/mL heparin (Sigma), 10 ng/mL mouse SCF (R&D Systems), 20 ng/mL mouse TPO (R&D Systems), and 10 ng/mL human FGF-1 (Invitrogen), and indicated concentration of suberoylarginine was used. Cells were cultured at 37° C. in 5% CO2 and the normal level of O2 for 8 days. […]

[4] = system: Balb/c mice; assay: Mouse model of bone marrow failure after chemo- and radio-treatment; type: in vivo
Procedure: (§3) Balb/c mice were first treated with 100 mg/kg acetylphenylhydrazine and, after 24 hours, were irradiated with 2 Gy. Two days post radiation treatment, the mice were treated with 62.5 mg/kg cyclophosphamide (CY). This treatment is known to induce sublethal damage to HSCs and RBCs. Two days after the CY treatment, the mice were given daily intraperitoneal injections of SA for 4 to 14 days; a range of SA concentrations was evaluated. Blood counts were measured at days 0, 4, and 8. Additionally, bone marrow Lin^−Sca-1^+Kit^+CD34^−Flk2^− (LSKFC) cells that are enriched for HSCs and hematopoietic lineages were quantified at day 14.
as §3, with “The inventors tested the effect of SA on HSCs and RBCs in a mouse bone marrow failure model after chemo- and radio-therapy. In this model, Balb/c mice” for “Balb/c mice”, “for HSCs (Christensen and Weissman, 2001) and hematopoietic” for “for HSCs and hematopoietic”

[5] = system: Balb/c mice; assay: Toxicity in mice, daily injections for 28 days; type: in vivo, mouse; settings: for toxicity: 0.5 and 1.5 mg daily for four weeks (33- and 100-times the effective amount)
Procedure: In this experiment, 8-week-old Balb/c mice were given daily injections of SA at doses of 0, 0.5, and 1.5 mg per mouse for 28 days. The body weight and activities of mice were monitored daily.

[6] = system: Mouse bone marrow Lin-Sca-1+Kit+CD34-Flk2-cells; assay: Proliferation of mouse HSCs; type: cell-based; settings: serum-free Stemspan, 10 ng/ml SCF, 20 ng/ml TPO, cell numbers after 6 days
Procedure: as §2
Mouse bone marrow Lin-Sca-1+Kit+CD34-Flk2-cells were cultured in serum-free Stemspan medium with 10 ng/ml SCF, 20 ng/ml TPO, and indicated concentrations of SA. Cell numbers were counted after 6 days.

[7] = Stability test in plasma; type: in vitro ADME; settings: 2 μM, mouse plasma, 37° C., 0-1440 min
Procedure: as §1
1 μl of SA (2 mM DMSO stock) was incubated with 1 ml ACD mouse plasma or saline control to make 2 μM SW125991 working solution. Vortext well and incubate in 37° C. water bath. At time point 0, 10, 30, 60, 120, 240, 1440 min, 100 μl sample was crashed by 200 μl MeOH with IS benzylbenzamide at 15 ng/ml. Centrifuge twice at 13200 rpm for 5 min, and supernatant was injected into LCMS for analysis.

[8] = 0.5 and 1.5 mg per mouse daily for 28 days

N=C(N)NCCC[C@H](NC(=O)CCCCCCC(=O)O)C(=O)O [SA, suberoyl arginine]
metabolic stability in S9 liver fractions [1]: metabolically stable
ex vivo expansion of human HSCs [2]: supports the ex vivo expansion
ex vivo expansion of mouse HSCs [3]: supports the ex vivo expansion
increase of phenotypic bone marrow HSCs ([4]; 15 μg of SA per mouse (~0.7 mg/kg) per day for 14 days): ~40%
increase of hematocrit relative to animals not treated ([4]; day 8): 25-30%
increase of hemoglobin relative to animals not treated ([4]; day 8): 25-30%
increase of level of RBCs relative to animals not treated ([4]; day 8): 25-30%
stimulation of hematopoietic recovery by route ([4]; iv or intraperitoneal (ip) administration): works efficiently
effect on RBC recovery compared with EPO ([4]; same mouse model, SA 15 μg, EPO 120 U/kg): comparable to that of EPO
toxicity [5]: did not observe any detectable SA toxicity
toxicity ([5]; listed as subreoylarginine): no detectable toxicity
body weight [5, 8]: did not significantly alter
changes in behavior, activity, hematology, serum chemistry, or urinalysis parameters [5, 8]: did not observe any changes
histological damage to tissues/organs [5, 8]: no damage was observed
body weight ([5]; 0.5 and 1.5 mg per mouse daily for 28 days, listed as suberoylarginine): No significant change
proliferation of mouse HSCs [6]: promoted the proliferation; also recorded: promotes proliferation
stability in plasma [7]: metabolically stable

From patent US11013704B2, “Compounds supports hematopoietic stem cells and red blood cells” (The Board of Regents of the University of Texas System, priority 2014, dated 2021)
